# Experiments:
# sciatic nerve injury = test: Sciatic nerve injury assay (static sciatic index from toe spread); assay type: in vivo, Sprague-Dawley rats; settings: rat, 50 mcg/kg into the caudal vein after nerve stretch injury, toe splaying over next four days, vs PBS; FIG. 1
# Experimental: RYLLEAKEAENITTG (SECS ID NO:1) was tested for tissue protective activity using a sciatic nerve injury assay, Sprague-Dawley rats (250-300 grams) (six per group, including control) were anesthetized using isoflurane. The rat was then placed on a homeothermic blanket to ensure that the core temperature of the rat was maintained at 35-37° C. during the operation. Core temperature was monitored via a rectal probe. The right sciatic nerve of the anesthetized rat was exposed at mid thigh through a quadriceps muscle dissection; a 2 cm incision with a 15 blade scalpel was made through the skin parallel and over the quadriceps muscle and the quadriceps muscle was cut to expose the sciatic nerve using a pair of dissecting scissors. […]
# Over the next four days the rear toe splaying of the rats was determined by placing the rat in an acrylic tube with a diameter of 30 cm on the scanning surface of a digital scanner. […] From the scans, the Toe Spread (the distance between the ball of the first toe and the ball of the fifth toe) and the Intermediate Toe Spread (the distance between the ball of the second toe and the ball of the fourth toe were measured. The static sciatic index (SSI) was then computed in accordance with S. Erbayraktar et al., 2003, Proc. Natl. Acad Sci USA 100, 6741-6746 (hereby incorporated by reference in its entirety) and statistical analysis performed.
# [1] = tested on: cancer cachexia, Yoshida hepatoma AH-130 cells; test: Cachexia model (Yoshida hepatoma AH-130 inoculated rats); assay type: in vivo, Male Wistar Han rats; settings: rat, daily 0.17 or 1.7 μg/kg/d, vs saline placebo
# Experimental: Male Wistar Han rats aged 8 weeks with an approximate weight of 200 g were inoculated intraperitoneally with 10^8 Yoshida hepatoma. AH-130 cells. Body weight and body composition were assessed before tumor inoculation and on the day of sacrifice. Quality of life indicators (spontaneous activity, food and water intake) were measured on day 0 and on day 10/11. Tumor cells were counted at the last day of the study. Rats were treated daily with either (1) low dose (0.17 μg/kg/d) RYLLEAKEAENITTG (SEQ ID NO:1), (2) high dose (1.7 μg/kg/d) RYLLEAKEAENITTG (SEQ ID NO:1), or (3) or normal saline (placebo) (n=22). Body composition of animals was analyzed using an EchoMRI-700 (Echo Medical Systems, Houston, Tex., USA). The analysis of the body structures was based on Nuclear Magnetic Resonance. Spontaneous activity was measured by an infrared scanner over 24 hours using Supermex activity monitoring system (Muromachi Kikai Co., LTD., Tokyo, Japan).
# [2] = tested on: histamine induced wheal (edema by intradermal histamine injection); test: Histamine induced wheal formation; assay type: in vivo, Sprague-Dawley rats; settings: rat, 30 mcg/kg intravenously shortly after intradermal histamine, area at fifteen minutes, vs placebo; FIG. 2
# Experimental: Under isofiurane anesthesia, 12 Sprague-Dawley rats' abdomens were shaved and depilated. Each rat was then injected intravenously (via internal jugular) with a dilute solution or Evans Blue (30 mg/ml in saline, 1 mg/kg bw). After 5 minutes, 6 small doses of histamine (histamine diphosphate, 20 microliters administered intradermally) in a rectangular pattern on each rat's abdomen. After fifteen minutes, when the wheal reaches its maximum size the wheal is photographed and the blister area was determined by digital planimetry. To test the efficacy of a peptide, RYLLEAKEAENITTG (SEQ ID NO:1) or placebo, was administered to the rats intravenously shortly after the histamine injection, at a dose of 30 mcg/kg.
sequence,measurement,setting,value
"RYLLEAKEAENITTG (peptide that have tissue protective activity) [tissue protective peptide of 15 amino acids derived from erythropoietin, made by Fmoc solid phase synthesis]","sciatic nerve injury (static sciatic index, SSI)",sciatic nerve injury,reduces sciatic nerve injury
same,loss of lean mass,"[1]; EchoMRI, FIG. 3C",reduced loss of lean mass
same,physical activity (spontaneous activity),"[1]; infrared scanner over 24 hours, FIG. 3D",increased physical activity
same,weight loss,[1]; FIG. 3A,reduced weight loss
same,epididymal fat,[1]; FIG. 3B,preserved epididymal fat
same,wheal area,[2],significantly reduced
